Source: BindingDB's records for doi:10.7270/Q23F4N3R (Burnham Center For Chemical Genomics, 2011)

Assay: hexokinase 1 inhibition, dose response, selectivity assay for HKDC1 inhibitor project, biochemical (AID 504763)
Conditions: not given

SMILES	IC50
CCOC(=O)C1=C(c2ccc(OC)cc2)C(=O)c2ccccc2C1=O [SMR000185036]	2.44 µM
O=C(CSc1nnc(CCCN2C(=O)c3cccc4cccc(c34)C2=O)n1-c1ccccc1)N1CCCCC1	9.74 µM
O=C1C=CC(CN=Nc2ccc([N+](=O)[O-])cn2)C(O)=C1 (configuration not stated) [SMR001527138]	> 80 µM
CCOC(=O)CSc1nc2ccc(C)cc2n2cnnc12 [MLS000999625]	12.9 µM
COc1ccc(NC(=O)CSc2ccc(-c3ccco3)nn2)cc1OC [MLS-0374858.0001]	17.7 µM
Cc1cccc(N2C(=O)NC(=O)C(=Cc3cc(C)n(-c4sc5c(c4C#N)CCCC5)c3C)C2=O)c1C [2-[3-[(E)-[1-(2,3-dimethylphenyl)-2,4,6-trioxo-1,3-diazinan-5-ylidene]methyl]-2,5-dimethylpyrrol-1-yl]-4,5,6,7-tetrahydro-1-benzothiophene-3-carbonitrile]	> 80 µM
O=C(/C=C/c1ccco1)NCC(=O)NNC1=c2ccccc2=NC1=O [MLS001075666]	> 80 µM
O=C1C(Nc2ccc(O)cc2)=CC(=NS(=O)(=O)c2cccs2)c2ccccc21 [MLS000775432]	6.28 µM
CC(Nc1cc(O)c2cccnc2c1O)C(=O)c1ccccc1 (configuration not stated)	75.1 µM
CCCc1nc2oc3c(OC)ncnc3c2c2c1COC(C)(C)C2 [MLS000559436]	18.5 µM
O=C(O)c1ccc(NC2=CC(=NS(=O)(=O)c3ccccc3)c3ccccc3C2=O)cc1 [SMR000313157]	1.63 µM
O=C(O)COc1ccc(C=NNC(=O)c2ccc(-c3csc(Nc4ccc(Cl)cc4)n3)cc2)cc1 [2-[4-[[[4-[2-(4-chloroanilino)-1,3-thiazol-4-yl]benzoyl]hydrazinylidene]methyl]phenoxy]acetic acid]	> 80 µM
Cc1ccc(SC2=C(N(C)C)C(=O)c3ccccc3C2=O)cc1 [2-(dimethylamino)-3-[(4-methylphenyl)thio]naphthalene-1,4-dione]	19.7 µM
COCc1cc(C2C(C(=O)c3ccco3)C(=O)C(=O)N2CCOCCO)ccc1O (configuration not stated) [3-(furan-2-carbonyl)-4-hydroxy-1-[2-(2-hydroxyethoxy)ethyl]-2-[4-hydroxy-3-(methoxymethyl)phenyl]-2H-pyrrol-5-one]	> 80 µM
CC(C)c1nc2oc3c(O)ncnc3c2c2c1COC(C)(C)C2 [MLS000779024]	5.26 µM
O=C1C(Cl)=C(N2CCC(C(=O)O)CC2)C(=O)c2ccccc21 [1-(3-chloro-1,4-dioxo-2-naphthalenyl)-4-piperidinecarboxylic acid]	13.5 µM
CCOc1ccc(/C=C2/SC(=S)N(CCC(=O)Nc3ccc(C(=O)O)cc3)C2=O)cc1 [4-[3-[(5E)-5-[(4-ethoxyphenyl)methylidene]-4-oxo-2-sulfanylidene-1,3-thiazolidin-3-yl]propanoylamino]benzoic acid]	> 80 µM
CC(=O)NC1C(=O)N(CCN2CCOCC2)c2ccc(Cl)cc21 (configuration not stated) [MLS001215975]	> 80 µM
O=C1NC(=S)N(c2ccc(F)cc2)C(=O)C1=Cc1ccoc1 [SMR000270574]	> 80 µM
O=C1C(Cl)=C(Oc2ccccc2)C(=O)c2ccccc21 [2-chloro-3-phenoxynaphthalene-1,4-dione]	10 µM
Cc1ccc(C)c(S(=O)(=O)Nc2cc(SCC(=O)O)c(O)c3ccccc23)c1 [2-[4-[(2,5-dimethylphenyl)sulfonylamino]-1-hydroxynaphthalen-2-yl]sulfanylacetic acid]	16.4 µM
O=C(CSc1n[nH]c(-c2cccnc2)n1)Nc1ccc([N+](=O)[O-])cc1Br [N-(2-bromo-4-nitrophenyl)-2-[(5-pyridin-3-yl-1H-1,2,4-triazol-3-yl)sulfanyl]acetamide]	5.71 µM
CCn1cc(C(=O)NCc2ccc3c(c2)OCO3)c2cc(OC)c(OC)cc2c1=O [2-ethyl-1-keto-6,7-dimethoxy-N-piperonyl-isoquinoline-4-carboxamide]	18.9 µM
COc1ccc2cc(CCNC(=O)c3ccc(S(=O)(=O)N4CCCC4)cc3)c(O)nc2c1 [SMR000805966]	7.34 µM
Cc1ccc(S(=O)(=O)N=C2C=C(Sc3nnc[nH]3)C(=O)c3ccccc32)cc1 [4-Methyl-N-[4-oxo-3-(2H-[1,2,4]triazol-3-ylsulfanyl)-4H-naphthalen-1-ylidene]-benzenesulfonamide]	3.29 µM
O=[N+]([O-])c1ccc(Sc2nc3ccccc3o2)c([N+](=O)[O-])c1 [MLS000532050]	> 80 µM
COC(=O)c1ccccc1NC1=CC(=NS(=O)(=O)c2ccc(C(=O)O)cc2)c2ccccc2C1=O	5.77 µM

SMILES	IC50
Cc1cc2cc(CCNC(=O)c3ccc(S(=O)(=O)N4CCCC4)cc3)c(O)nc2cc1C [N-[2-(6,7-dimethyl-2-oxo-1H-quinolin-3-yl)ethyl]-4-pyrrolidin-1-ylsulfonylbenzamide]	15 µM
O=Cc1[nH]c2ccccc2c1N(C(=O)CCl)c1ccccc1 [MLS001029456]	> 80 µM
O=C1C(N2CCOCC2)=C(n2nnc3ccccc32)C(=O)c2ccccc21 [2-(1-benzotriazolyl)-3-(4-morpholinyl)naphthalene-1,4-dione]	7.58 µM
Cc1ccc(S(=O)(=O)N=C2C=C(Nc3cccc(C(=O)O)c3)C(=O)c3ccccc32)c(C)c1 [3-[[(4E)-4-(2,4-dimethylphenyl)sulfonylimino-1-oxo-2-naphthalenyl]amino]benzoic acid]	11 µM
O=C1C(=O)c2c(C(=O)c3ccccc3)coc2-c2ccccc21 [3-(phenylcarbonyl)benzo[g][1]benzofuran-4,5-dione]	> 80 µM
COc1ncnc2c1oc1nc(C(C)C)c3c(c12)CC(C)(C)OC3 [MLS000084533]	12.5 µM
O=C(C1=C(c2ccccc2)C(=O)c2ccccc2C1=O)c1ccccc1 [2-benzoyl-3-phenylnaphthoquinone]	7.24 µM
COC1=C(OC)C(=O)C(Sc2ccc3ccccc3c2)=CC1=O [2,3-dimethoxy-5-naphthalen-2-ylsulfanylcyclohexa-2,5-diene-1,4-dione]	7.15 µM
Cc1ccccc1NC1=CC(=NS(=O)(=O)c2ccc(C(=O)O)cc2)c2ccccc2C1=O [4-[(E)-[3-(2-methylanilino)-4-oxonaphthalen-1-ylidene]amino]sulfonylbenzoic acid]	2.84 µM
COC1=CC(/C=C(\C#N)c2nc3ccc(C)cc3[nH]2)C=C([N+](=O)[O-])C1=O (configuration not stated) [(2Z,3E)-3-(3-methoxy-5-nitro-4-oxocyclohexa-2,5-dien-1-ylidene)-2-(5-methyl-1,3-dihydrobenzimidazol-2-ylidene)propanenitrile]	18 µM
N=C(NCc1ccc2c(c1)OCO2)NC(=O)c1ccccc1 [SMR000293067]	> 80 µM
CCOC(=O)c1ccc(NC(=O)CSc2ccc(-c3ccccn3)nn2)cc1 [ethyl 4-[2-(6-pyridin-2-ylpyridazin-3-yl)sulfanylethanoylamino]benzoate]	2.15 µM
Cc1ccc(SC2=C(Sc3ccc(C)cc3)C(=O)c3ccccc3C2=O)cc1 [MLS000756557]	20 µM
Cc1cccc2c1=NC(=O)C=2NNC(=O)c1ccc(NS(=O)(=O)c2cccs2)cc1 [SMR001246714]	52.6 µM
Cc1cc2nnc(SCC(=O)Nc3cc(S(=O)(=O)N4CCOCC4)ccc3Cl)n2c2ccccc12 [N-(2-chloro-5-morpholin-4-ylsulfonylphenyl)-2-[(5-methyl-[1,2,4]triazolo[4,3-a]quinolin-1-yl)sulfanyl]acetamide]	18 µM
Cc1ccc2cc(CCNC(=O)c3ccc(S(=O)(=O)N4CCCCC4)cc3)c(O)nc2c1	6.04 µM
CCCCC[C@H](O)/C=C/[C@@H]1[C@@H](C/C=C\CCCC(=O)OC)[C@@H](O)C[C@H]1O [MLS000028823]	> 80 µM
Cc1nc2c(c(=O)c3ccccc3n2C)c(=O)n1-c1ccccc1	15.3 µM
CC[C@H](C)C=C(C)/C=C/C1=CC2=C(Cl)C(=O)[C@@](C)(OC(C)=O)C(=O)C2=CO1 [SMR000470870]	> 80 µM
CC(=O)N(C1=C(Cl)C(=O)c2ccccc2C1=O)C1CCCCC1	10.2 µM
CCCC(=O)NC1=C(Cl)C(=O)c2ccccc2C1=O	3.06 µM
CC(C)c1nc2oc3c(NCCO)ncnc3c2c2c1COC(C)(C)C2 [SMR000439744]	2.82 µM
CCC1=NN2C(=N)/C(=C\c3ccc(OCc4cc(=O)n5nc(CC)sc5n4)c(OC)c3)C(=O)N=C2S1 [2-ethyl-7-({4-[(E)-(2-ethyl-5-imino-7-oxo-5H-[1,3,4]thiadiazolo[3,2-a]pyrimidin-6(7H)-ylidene)methyl]-2-methoxyphenoxy}methyl)-5H-[1,3,4]thiadiazolo[3,2-a]pyrimidin-5-one]	> 80 µM
Cc1[nH]c2c(=O)c3c(c(=O)c=2[nH]c1C)C1C=CC3CC1 [MLS002701599]	2.08 µM
CCc1nc2c(c(=O)c3ccccc3n2C)c(=O)n1-c1ccc(F)cc1 [SMR000221205]	8.41 µM
COc1ccc2[nH]c3c4c(ccc3c2c1)C(=O)C=CC4=O [8-methoxy-11H-benzo[a]carbazole-1,4-dione]	> 80 µM

Same assay, conditions: inactive by the depositor's call

SMILES	IC50
COC1=CC(=O)C(C2CC(=O)c3c(O)cc(O)cc3O2)=CC1=O (configuration not stated) [SMR001565628]	35.9 µM
CCOC(=O)C1=C(Cc2ccc(Cl)cc2)C(=O)c2ccccc2C1=O [ethyl 3-[(4-chlorophenyl)methyl]-1,4-bis(oxidanylidene)naphthalene-2-carboxylate]	22.2 µM
COC(=O)c1ccc(NCc2cc(O)ccc2O)cc1 [4-[(2,5-dihydroxyphenyl)methylamino]benzoic acid methyl ester]	21.3 µM
O=C(O)CSc1cc(NS(=O)(=O)c2cccc([N+](=O)[O-])c2)c2ccccc2c1O [2-[1-hydroxy-4-[(3-nitrophenyl)sulfonylamino]naphthalen-2-yl]sulfanylacetic acid]	29.4 µM
Cc1cc(C)n2nc(SCc3nnc(SCc4ccccc4Cl)s3)nc2n1	23.2 µM
O=C1C(Cl)=C(NC(=O)c2ccccc2)C(=O)C(Cl)=C1NC(=O)c1ccccc1 [N-[4-benzamido-2,5-bis(chloranyl)-3,6-bis(oxidanylidene)cyclohexa-1,4-dien-1-yl]benzamide]	39.2 µM
COc1ccc(C(=O)c2coc3c2C(=O)C(=O)c2ccccc2-3)cc1 [3-(4-Methoxy-benzoyl)-naphtho[1,2-b]furan-4,5-dione]	27.2 µM
Cc1ccc(S(=O)(=O)Nc2c(O)ccc3ccccc23)cc1 [4-methyl-N-(2-oxidanylnaphthalen-1-yl)benzenesulfonamide]	27.4 µM
COc1ccc(N2C3=C(CC4=C2CCCC4=O)C(=O)CCC3)cc1 [10-(4-methoxyphenyl)-3,4,6,7,9,10-hexahydro-1,8(2H,5H)-acridinedione]	24 µM
